Laboratory results: EP4778933A1 (Chengdu Hyperway Pharmaceuticals Co., Ltd., priority 2023, dated 2025)
Like-named read-outs stand apart in the source and are kept apart here.

Legend:
[1] = tested on: KRAS G13D-mediated ERK phosphorylation; experiment: Inhibition of KRAS G13D-mediated ERK phosphorylation in HCT116 cells; format: cell-based; conditions: Homo sapiens, HCT-116, 3 h incubation, read-out: Inhibitory activity on ERK phosphorylation (IC50) HCT116-G13D
Experimental: (§1) Day 1: AGS cells, SW480 cells, NCI H358 cells, HCT116 cells, and KP2 cells were seeded into 384-well cell culture plates and cultured overnight in a 37°C, 5% CO2 incubator.
(§2) Day 2: The compounds were added to the plates using Echo550 and incubated for 3 h in a 37°C, 5% CO2 incubator. Then, cells fixed with paraformaldehyde, permeated with methanol and blocked with a blocking solution were added. Finally, a mixed solution of primary antibodies (rabbit anti pERK, mouse anti GAPDH) was added, and the mixture was incubated overnight at 4°C.
(§3) Day 3: The mixed solution of primary antibodies was discarded, and a mixed solution of secondary antibodies (goat anti rabbit 800 CW, goat anti mouse 680 RD) was added. The resulting mixture was incubated at room temperature in the dark. Finally, the cell culture plate was washed with PBST, and then inverted for 1 minute of centrifugation. The fluorescence signal values were read with Odyssey CLx.
(§4) ERK phosphorylation was calculated according to the following formula: [formula] • Negative control: DMSO • Positive control: 10 µM Reference • IC50 value was fitted and calculated by XLFit 5.0 using the parametric formula. • Y = Bottom+(Top-Bottom)/(1+10^((LogIC50-X)*HillSlope)) • X: log value of compound concentration. • Y: average value of relative expression of p-ERK between replicate wells.

[2] = tested on: KRAS G12D-mediated ERK phosphorylation; experiment: Inhibition of KRAS G12D-mediated ERK phosphorylation in AGS cells (in-cell pERK/GAPDH immunofluorescence); format: cell-based; conditions: AGS cells, 3 h incubation, read-out: Inhibitory activity on ERK phosphorylation (IC50) AGS-G12D
Experimental: as §1, §2, §3, §4

[3] = In vivo pharmacokinetic test in mice; conditions: female BALB/c mice, oral, single dose 30 mg/kg, plasma
Experimental: (§5) Each test compound was administered orally once to female BALB/c mice for pharmacokinetic study. The test compounds were prepared on the day of administration. The oral administration solvent: 50 mM sodium citrate (pH 5.0) + 10% captisol. The oral administration was conducted in a dose of 30 mg/kg. The animals were fasted for 10-14 h before oral administration, and the feeding was resumed 4 h after administration. Pharmacokinetic samples were collected through the orbit. The collection time points were: 15 min, 30 min, 1 h, 2 h, 4 h, 6 h, 8 h and 24 h after administration. Three whole blood samples were collected at each time point, with a collection volume of about 0.2 mL, and anticoagulated with sodium heparin. After blood samples were collected, they were immediately placed on ice and centrifuged within 1 h to isolate plasma (centrifugation conditions: 8000 rpm, 1 min, 2-8°C). The collected plasma was stored in a -20°C refrigerator before analysis. The concentrations of compounds in the plasma samples were determined using an LC-MS/MS analysis method.

[4] = tested on: KRAS G12R-mediated ERK phosphorylation; experiment: Inhibition of KRAS G12R-mediated ERK phosphorylation in KP2 cells; format: cell-based; conditions: 3 h incubation, read-out: Inhibitory activity on ERK phosphorylation (IC50) KP2-G12R
Experimental: as §1, §2, §3, §4

[5] = tested on: KRAS G12C-mediated ERK phosphorylation; experiment: Inhibition of KRAS G12C-mediated ERK phosphorylation in NCI H358 cells; format: cell-based; conditions: Homo sapiens, 3 h incubation, read-out: Inhibitory activity on ERK phosphorylation (IC50) NCI H358-G12C
Experimental: as §1, §2, §3, §4

[6] = tested on: KRAS G12V-mediated ERK phosphorylation; experiment: Inhibition of KRAS G12V-mediated ERK phosphorylation in SW480 cells; format: cell-based; conditions: 3 h incubation, read-out: Inhibitory activity on ERK phosphorylation (IC50) SW480-G12V
Experimental: as §1, §2, §3, §4

[7] = tested on: GP2D (KRASG12D); experiment: 3D cell proliferation inhibition test (CellTiter-Glo 3D, 7 days), GP2D; format: cell-based; conditions: 168 h, read-out: Inhibitory activity on cell proliferation (IC50) GP2D (KRASG12D)
Experimental: (§6) The diluted compounds to be tested were added to 384-well low-adhesion KRAS mutant types (such as GP2D, NCI H358, LoVo, RKN and KP2) of cell culture plates by using a nanoliter pipetting system (LABCYTE, P-0200). Then, the cells were plated and incubated in a 37°C, 5% CO2 incubator for 7 days. Afterward, CellTiter-Glo® 3D reagent was added, and the luminescent values were read by an Envision multifunctional microplate reader (the luminescent signal is proportional to the amount of ATP in the system, and the ATP content directly represents the number of viable cells in the system). Finally, the IC50 values (half-maximal inhibitory concentration) of the compounds were obtained by the XLFIT software using the nonlinear fitting formula.
(§7) • a) The diluted compounds to be tested were added to 384-well low-adhesion KRAS mutant types of cell culture plates by using a nanoliter pipetting system. • b) Cells were seeded into the 384-well plates in a) and then centrifuged at 1000 rpm for 1 min at room temperature, with a final DMSO concentration of compound being 0.5%. The plates were then incubated in a 5% CO2 constant-temperature incubator at 37°C for 7 days. • c) CellTiter-Glo® 3D was added to the 384-well cell culture plates in b), shaken in the dark, and incubated at room temperature. • d) The luminescence values were read by using an Envision multifunctional microplate reader.
(§8) The IC50 (half-maximal inhibitory concentration) values of the compounds were obtained by using XLFIT software according to the following nonlinear fitting formula: Y = Bottom + (Top−Bottom)/(1+10^(∧)((LogIC50−X)×HillSlope)) [formula] • X: log value of compound concentration. • Y: inhibition rate (%) [formula] • Negative control: DMSO. • Positive control: Medium only.

[8] = In vivo pharmacokinetic test in rats; design: species or system SD Rats; conditions: Sprague-Dawley (SD), rat; male rats, oral, single dose 30 mg/kg, plasma
Experimental: as §5, with “once to male […] rats” for “once to female BALB/c mice”, “male BALB/c rats for pharmacokinetic” for “female BALB/c mice for pharmacokinetic”, “administration. The intravenous administration solvent: 5% DMSO + 10% solutol + 85% saline; and the oral administration” for “administration. The oral administration”, “points were: 5 min (intravenous administration), 15 min,” for “points were: 15 min,”, “analysis method. Table 4: Pharmacokinetic test results of some compounds in SD Rats” for “analysis method.”

[9] = tested on: RKN (KRAS G12V); experiment: 3D cell proliferation inhibition test (CellTiter-Glo 3D, 7 days), RKN; format: cell-based; conditions: 168 h, read-out: Inhibitory activity on cell proliferation (IC50) RKN (KRAS G12V)
Experimental: as §6, §7, §8

[10] = tested on: human ovarian cancer RKN mouse xenograft tumors; experiment: In vivo drug efficacy, RKN subcutaneous xenograft tumor model; design: species or system Balb/c nude mice; conditions: 50 mg/kg, PO
Experimental: A subcutaneous xenograft tumor model of human ovarian cancer RKN (derived from uterine leiomyosarcoma) cells was established in Balb/c nude mice. RKN tumor cells resuspended in Ham's F12 medium were inoculated subcutaneously on the right side of the experimental animals at 5×10^6 + gel/0.1 mL. When the tumor grew to about 150-200 mm^3, 20 animals having relatively uniform tumor volumes were selected for group administration, with a total of 4 groups, 5 animals in each group. On the day of the experiment, the animals were given the corresponding drugs according to the groups. The first group G1 was set as a solvent group, and 50 mM citrate buffer (pH 5.0) + 10% Captisol was given by gavage alone. The second group G2 was given a 50 mM citrate buffer (pH 5.0) + 10% Captisol of compound 21. The third group G3 was given a 50 mM citrate buffer (pH 5.0) + 10% Captisol of compound 26. The fourth group G4 was given a 50mM citrate buffer (pH 5.0) + 10% Captisol of compound 31. Table 7: Study on effect of test substances on animal tumor size in the human ovarian cancer RKN mouse xenograft tumor model
During the experiment, the body weight and tumor size of the animals were measured twice a week, and the clinical symptoms of the animals were observed and recorded every day. Each drug administration was based on the most recent weighing of the animals.
The tumor was measured with a digital vernier caliper to measure the length (a) and width (b). The tumor volume (TV) was calculated using the following formula: TV = a × b^2 /2. [formula]

IC50 [1] [nM] | IC50 [4] [nM] | IC50 [6] [nM] | IC50 [2] [nM] | AUC ([3]; 30 mg/kg) [ng·h/mL] | Cmax ([3]; 30 mg/kg) [ng/mL] | SMILES | IC50 [5] [nM] | other results
63 | 148 | 2.4 | 3.3 | 37427 | 5544 | CC1(O)COCCN(c2nc(OCC34CCCN3C(c3cc(F)c(F)c(F)c3)CC4)nc3c(F)c(-c4ccc(F)c5sc(N)c(C#N)c45)c(Cl)cc23)C1 (single isomer, unassigned) [Example 12, 2-amino-4-[6-chloro-8-fluoro-4-(6-hydroxy-6-methyl-1,4-oxazepan-4-yl)-2-({[3-(3,4,5-trifluorophenyl)-2,3,5,6,7,7a-hexahydro-1H-pyrrolizin-7a-yl]methyl}oxy)quinazolin-7-yl]-7-fluorobenzo[b]thiophene-3-carbonitrile] | 3.1 | –
– | – | 16 | – | – | – | CC1(O)COCCN(c2nc(OCC34CCCN3C(c3cc(F)c(F)c(F)c3)CC4)nc3c(F)c(-c4ccc(F)c5sc(N)c(C#N)c45)c(Cl)cc23)C1 (single isomer, unassigned) [Example 13, 2-amino-4-[6-chloro-8-fluoro-4-(6-hydroxy-6-methyl-1,4-oxazepan-4-yl)-2-({[3-(3,4,5-trifluorophenyl)-2,3,5,6,7,7a-hexahydro-1H-pyrrolizin-7a-yl]methyl}oxy)quinazolin-7-yl]-7-fluorobenzo[b]thiophene-3-carbonitrile] | – | –
– | – | > 1000 | – | – | – | CC1(O)COCCN(c2nc(OCC34CCCN3C(c3cc(F)c(F)c(F)c3)CC4)nc3c(F)c(-c4ccc(F)c5sc(N)c(C#N)c45)c(Cl)cc23)C1 (single isomer, unassigned) [Example 11, 2-amino-4-[6-chloro-8-fluoro-4-(6-hydroxy-6-methyl-1,4-oxazepan-4-yl)-2-({[3-(3,4,5-trifluorophenyl)-2,3,5,6,7,7a-hexahydro-1H-pyrrolizin-7a-yl]methyl}oxy)quinazolin-7-yl]-7-fluorobenzo[b]thiophene-3-carbonitrile] | – | –
45 | 146 | – | 4.7 | 30872 | 5218 | CC1(O)COCCN(c2nc(OCC34CCCN3C(c3cc(F)c(F)c(F)c3)CC4)nc3c(F)c(-c4cccc5sc(N)c(C#N)c45)c(Cl)cc23)C1 (single isomer, unassigned) [Example 21, 2-amino-4-[6-chloro-8-fluoro-4-(6-hydroxy-6-methyl-1,4-oxazepan-4-yl)-2-({[3-(3,4,5-trifluorophenyl)-2,3,5,6,7,7a-hexahydro-1H-pyrrolizin-7a-yl]methyl}oxy)quinazolin-7-yl]benzo[b]thiophene-3-carbonitrile] | 2.04 | IC50 ([6]; Homo sapiens, SW480, 3 h): 7.8 nM; IC50 [7]: 4.26 nM; AUC [8]: 5290 ng·h/mL; Cmax [8]: 866 ng/mL; IC50 [9]: 7.23 nM; inhibitory effects on human ovarian cancer RKN mouse xenograft tumors ([10]; BID, 28 days): significant inhibitory effects; Tumor volume inhibition rate (TGI) ([10]; RKN xenograft, BID × 28, day 28): 109%

SMILES | IC50 [1] [nM] | IC50 [4] [nM] | IC50 [6] [nM] | IC50 [2] [nM] | AUC ([3]; 30 mg/kg) [ng·h/mL] | Cmax ([3]; 30 mg/kg) [ng/mL] | IC50 [5] [nM] | other results
CC1(O)COCCN(c2nc(OCC34CCCN3C(c3cc(F)c(F)c(F)c3)CC4)nc3c(F)c(-c4cccc5sc(N)c(C#N)c45)c(Br)cc23)C1 (stereo not shown) [Example 23, 2-amino-4-[6-bromo-8-fluoro-4-(6-hydroxy-6-methyl-1,4-oxazepan-4-yl)-2-({[3-(3,4,5-trifluoropheny 1)-2,3,5,6,7,7a-hexahydro-1H-pyrrolizin-7a-yl]methyl}oxy)quinazolin-7-yl]benzo[b]thiophene-3-carb onitrile] | 94 | 663 | – | – | – | – | 4.9 | IC50 ([2]; Homo sapiens, AGS, 3 h): 4.2 nM; AUC ([3]; mouse, read-out: AUC): 9230 ng·h/mL; Cmax ([3]; mouse, read-out: Cmax): 3620 ng/mL
